Five molecules from patent US20020137929A1, “1 - (3-heterocyclylphenyl) isothiourea, -isourea, -guanidine and -amidine herbicidal agents” (Intellectual Property Department, BASF Aktiengesellschaft, priority 1998, published 2002) can be followed below.

Experiment [1] concerns CHEAL (Lambsquarters, Common). Put plainly: Postemergence herbicidal evaluation. The experiment is classed as in vivo, Chenopodium album. Conditions: for CHEAL herbicidal rating: postemergence. The method, boiled down:
(§1)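 ~2-wk seedlings; postemergence spray, 40 psi; vehicle 1:1 acetone:water + 0.5% Tween 20; rate ≈0.0156–0.500 kg/ha; greenhouse hold; scored 4–5 wk after treatment, 0–9 scale vs control; repeat tests averaged.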

A further experiment relates to ORYSAT (Rice, Tebonnet). Put plainly: Preemergence herbicidal evaluation. The experiment is classed as in vivo, Oryza sativa, (L.) Tebonnet. To be noted: rated 4-5 weeks after treatment; for ORYSAT rating: preemergence, 0-9 scale. A digest of the protocol:
(§2)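 Sown cups got a single aqueous acetone spray of test compound (roughly 0.0156–0.500 kg/ha) before seedlings emerged. Evaluation, 4–5 weeks on, used a 0–9 visual scale covering plant stand, vigor, size, malformation, chlorosis and general appearance compared with controls.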

The next experiment relates to MOOVA (Monochoria). The experiment in a line: Postemergence weed control under flooded paddy conditions. The experiment is classed as in vivo, Monochoria vaginalis. Conditions: postemergence weeds. The method, boiled down: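 Injury ratings (0–9 scale covering stand, vigor, malformation, size, chlorosis and overall appearance versus control) were made three to four weeks after treatment. Test material, about 0.0313 to 0.500 kg/ha a.i. in 50/50 v/v aqueous/acetone, was added to flood water 1.5 to 3 cm deep over 3 to 5 cm weeds and 1.5 to 2.5 leaf rice.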

Experiment [2] deals with TRZAWR (Wheat, Winter, cv Riband). The experiment in a line: Postemergence herbicidal evaluation. Type of experiment: in vivo, Triticum aestivum. To be noted: for TRZAWR herbicidal rating: postemergence. A digest of the protocol:
as §1

For experiment [3], the system named is CHEAL (Lambsquarters, Common). Put plainly: Preemergence herbicidal evaluation. The experiment is classed as in vivo, Chenopodium album. To be noted: rated 4-5 weeks after treatment; for CHEAL rating: preemergence, 0-9 scale. A digest of the protocol:
as §2

A further experiment concerns CASOB (Sicklepod). Put plainly: Postemergence herbicidal evaluation. Type of experiment: in vivo, Cassia obtusifolia. Conditions: for CASOB herbicidal rating: postemergence. A digest of the protocol: as §1
Where [4] appears, read: Rate 0.0313 kg/ha, rated 3 to 4 weeks after treatment.
Where [5] appears, read: Rate 0.0625 kg/ha, rated 3 to 4 weeks after treatment.
[6] abbreviates: Rate 0.1250 kg/ha, rated 3 to 4 weeks after treatment.
The mark [7] stands for this setting: Rate 0.2500 kg/ha, rated 3 to 4 weeks after treatment.
Where [8] appears, read: rate 0.0313 kg/ha, 3-4 weeks after treatment.
Where [9] appears, read: rate 0.0625 kg/ha, 3-4 weeks after treatment.
Where [10] appears, read: rate 0.1250 kg/ha, 3-4 weeks after treatment.
Where [11] appears, read: rate 0.2500 kg/ha, 3-4 weeks after treatment.

As for `C=CCN1C(=O)C(CC(=O)O)SC1=Nc1cc(-n2c(=O)cc(C(F)(F)F)n(C)c2=O)c(F)cc1Cl` (stereo not shown) [Compound 62, 3-Allyl-2-{{2-chloro-5-[3,6-dihydro-3-methyl-2,6-dioxo-4-(trifluoromethyl)-1(2H)-pyrimidinyl]-4-fluorophenyl}imino}-4-oxo-5-thiazolidineacetic acid], the “Postemergence herbicidal rating CHEAL” value in experiment [1] (Rate 0.0158 kg/ha), in experiment [1] (Rate 0.0315 kg/ha) and in experiment [1] (Rate 0.0630 kg/ha) was 9.0 each time. Moreover, the “Preemergence herbicidal rating ORYSAT” value in the experiment with ORYSAT (Rice, Tebonnet) (rate 0.0156 kg/ha) was determined as 0.0; in the experiment with ORYSAT (Rice, Tebonnet) (rate 0.0313 kg/ha) it was 0.0; with ORYSAT (Rice, Tebonnet) (rate 0.0625 kg/ha) it was 1.0; in the experiment with ORYSAT (Rice, Tebonnet) (rate 0.1250 kg/ha) it was 4.0; in the experiment on ORYSAT (Rice, Tebonnet) (rate 0.2500 kg/ha) it was 6.0. For the same molecule, the “Herbicidal rating MOOVA” value with MOOVA (Monochoria) (setting [4]) was 4.0; with MOOVA (Monochoria) (setting [5]), 9.0; in the experiment with MOOVA (Monochoria) (setting [6]), 9.0; in the experiment with MOOVA (Monochoria) (setting [7]), 9.0. In addition, the “Postemergence herbicidal rating TRZAWR” value in experiment [2] (Rate 0.0158 kg/ha) is 5.0; in experiment [2] (Rate 0.0315 kg/ha), 5.5; in experiment [2] (Rate 0.0630 kg/ha), 7.0. Besides, the “Preemergence herbicidal rating CHEAL” value in experiment [3] (rate 0.0156 kg/ha) is given as 7.0; in experiment [3] (rate 0.0313 kg/ha), 9.0; in experiment [3] (rate 0.0625 kg/ha) it was 9.0; in experiment [3] (rate 0.1250 kg/ha), 9.0; in experiment [3] (rate 0.2500 kg/ha), 9.0. Besides, the “Postemergence herbicidal rating CASOB” value with CASOB (Sicklepod) (Rate 0.0158 kg/ha) is 1.0; in the experiment with CASOB (Sicklepod) (Rate 0.0315 kg/ha) it was 2.0; in the experiment on CASOB (Sicklepod) (Rate 0.0630 kg/ha), 6.0.

With `CCOC(=O)CN1C(=O)C(CC(=O)O)O/C1=N/c1cc(-n2c(=O)cc(C(F)(F)F)n(C)c2=O)c(F)cc1Cl` (stereo not shown) [Compound 41, 2-{{2-Chloro-5-[3,6-dihydro-3-methyl-2,6-dioxo-4-(trifluoromethyl)-1(2H)-pyrimidinyl]-4-fluoro-phenyl}imino}-4-oxo-3,5-oxazolidinediacetic acid, 3-ethyl ester], the “Postemergence herbicidal rating CHEAL” value in experiment [1] (Rate 0.0158 kg/ha) was determined as 3.0; in experiment [1] (Rate 0.0315 kg/ha), 7.0; in experiment [1] (Rate 0.0630 kg/ha), 9.0. Besides, the “Preemergence herbicidal rating ORYSAT” value in the experiment on ORYSAT (Rice, Tebonnet) (rate 0.0156 kg/ha) is listed as 0.0; in the experiment on ORYSAT (Rice, Tebonnet) (rate 0.0313 kg/ha) it was 0.0; with ORYSAT (Rice, Tebonnet) (rate 0.0625 kg/ha), 0.0; in the experiment with ORYSAT (Rice, Tebonnet) (rate 0.1250 kg/ha) it was 0.0; with ORYSAT (Rice, Tebonnet) (rate 0.2500 kg/ha), 0.0. In addition, the “Herbicidal rating MOOVA” value in the experiment with MOOVA (Monochoria) (setting [8]) came to 6.0; with MOOVA (Monochoria) (setting [9]), 9.0; in the experiment with MOOVA (Monochoria) (setting [10]), 9.0; in the experiment on MOOVA (Monochoria) (setting [11]), 9.0. For the same molecule, the “Postemergence herbicidal rating TRZAWR” value turned out to be 4.0 in experiment [2] (Rate 0.0158 kg/ha), 4.0 in experiment [2] (Rate 0.0315 kg/ha) and 5.0 in experiment [2] (Rate 0.0630 kg/ha). For the same molecule, the “Preemergence herbicidal rating CHEAL” value came out at 0.0 in experiment [3] (rate 0.0156 kg/ha); 4.0 in experiment [3] (rate 0.0313 kg/ha); 9.0 in experiment [3] (rate 0.0625 kg/ha); 9.0 in experiment [3] (rate 0.1250 kg/ha); 9.0 in experiment [3] (rate 0.2500 kg/ha). The “Postemergence herbicidal rating CASOB” value in the experiment with CASOB (Sicklepod) (Rate 0.0158 kg/ha) was 1.0; in the experiment with CASOB (Sicklepod) (Rate 0.0315 kg/ha) it was 1.0; with CASOB (Sicklepod) (Rate 0.0630 kg/ha) it was 5.0.

`CCOC(=O)CN1C(=O)C(Cc2ccccc2OC(C)C(=O)OC)SC1=Nc1cc(-n2c(=O)cc(C(F)(F)F)n(C)c2=O)c(F)cc1Cl` (stereo not shown) [Compound 50, 2-{{2-Chloro-5-[3,6-dihydro-3-methyl-2,6-dioxo-4-(trifluoromethyl)-1(2H)-pyrimidinyl]-4-fluoro-phenyl}imino}-5-(o-hydroxybenzyl)-4-oxo-3-thiazolidineacetic acid, ethyl ester, ester with methyl lactate]: the “Postemergence herbicidal rating CHEAL” value was 0.0 in experiment [1] (Rate 0.0156 kg/ha), 3.0 in experiment [1] (Rate 0.0313 kg/ha) and 5.0 in experiment [1] (Rate 0.0625 kg/ha). The “Preemergence herbicidal rating ORYSAT” value is given as 0.0 with ORYSAT (Rice, Tebonnet) (rate 0.0625 kg/ha); 0.0 in the experiment with ORYSAT (Rice, Tebonnet) (rate 0.1250 kg/ha); 0.0 in the experiment on ORYSAT (Rice, Tebonnet) (rate 0.2500 kg/ha). Further, the “Herbicidal rating MOOVA” value with MOOVA (Monochoria) (setting [8]) was 0.0; in the experiment with MOOVA (Monochoria) (setting [9]), 0.0; in the experiment with MOOVA (Monochoria) (setting [10]), 3.0; with MOOVA (Monochoria) (setting [11]), 7.0. In addition, the “Postemergence herbicidal rating TRZAWR” value in experiment [2] (Rate 0.0156 kg/ha) worked out at 3.0; in experiment [2] (Rate 0.0313 kg/ha) it was 3.5; in experiment [2] (Rate 0.0625 kg/ha), 4.5. In addition, the entries for the “Preemergence herbicidal rating CHEAL” value in experiment [3] (rate 0.0625 kg/ha), in experiment [3] (rate 0.1250 kg/ha) and in experiment [3] (rate 0.2500 kg/ha) were 0.0, 9.0 and 9.0, respectively. The “Postemergence herbicidal rating CASOB” value in the experiment on CASOB (Sicklepod) (Rate 0.0156 kg/ha) turned out to be 0.0; with CASOB (Sicklepod) (Rate 0.0313 kg/ha), 1.0; in the experiment with CASOB (Sicklepod) (Rate 0.0625 kg/ha), 2.0.

On to `C=CCN1C(=O)C(CC(=O)OC(C)C(=O)OCC)SC1=Nc1cc(-n2c(=O)ccn(C)c2=O)c(F)cc1Cl` [Compound 94, 3-Allyl-2-{{2-chloro-5-[3,6-dihydro-3-methyl-2,6-dioxo-1(2H)-pyrimidinyl]-4-fluorophenyl}imino}-4-oxo-5-thiazolidineacetic acid, ester with ethyl lactate, (R,S)-], for which the CHEAL herbicidal rating in experiment [1] (rate 0.0158 kg/ha), in experiment [1] (rate 0.0315 kg/ha) and in experiment [1] (rate 0.0630 kg/ha) was 9.0 in each case. Further, the ORYSAT rating was 0.0 in the experiment on ORYSAT (Rice, Tebonnet) (0.0156 kg/ha); 0.0 with ORYSAT (Rice, Tebonnet) (0.0313 kg/ha); 0.0 in the experiment with ORYSAT (Rice, Tebonnet) (0.0625 kg/ha); 0.0 with ORYSAT (Rice, Tebonnet) (0.1250 kg/ha); 3.0 in the experiment with ORYSAT (Rice, Tebonnet) (0.2500 kg/ha). Also, the “Herbicidal rating MOOVA” value with MOOVA (Monochoria) (setting [4]), in the experiment on MOOVA (Monochoria) (setting [5]), in the experiment on MOOVA (Monochoria) (setting [6]) and in the experiment on MOOVA (Monochoria) (setting [7]) was 9.0 throughout. Besides, the values for the TRZAWR herbicidal rating in experiment [2] (rate 0.0158 kg/ha), in experiment [2] (rate 0.0315 kg/ha) and in experiment [2] (rate 0.0630 kg/ha) were 6.0, 9.0 and 8.0, respectively. Moreover, the CHEAL rating in experiment [3] (0.0156 kg/ha), in experiment [3] (0.0313 kg/ha), in experiment [3] (0.0625 kg/ha), in experiment [3] (0.1250 kg/ha) and in experiment [3] (0.2500 kg/ha) was 9.0 in each case. In addition, the figures for the CASOB herbicidal rating in the experiment on CASOB (Sicklepod) (rate 0.0158 kg/ha), with CASOB (Sicklepod) (rate 0.0315 kg/ha) and in the experiment on CASOB (Sicklepod) (rate 0.0630 kg/ha) were 0.0, 3.0 and 9.0, respectively.

Take `Cn1c(C(F)(F)F)cc(=O)n(-c2cc(N=C3SCC(=O)N3[C@@H](Cc3ccccc3)C(=O)O)c(Cl)cc2F)c1=O` [Compound 53, α-Benzyl-2-{{2-chloro-5-[3,6-dihydro-3-methyl-2,6-dioxo-4-(trifluoromethyl)-1(2H)-pyrimidinyl]-4-fluorophenyl}imino}-4-oxo-3-thiazolidineacetic acid, L-]: the “Postemergence herbicidal rating CHEAL” value stood at 7.0 in experiment [1] (Rate 0.0158 kg/ha), 9.0 in experiment [1] (Rate 0.0315 kg/ha) and 9.0 in experiment [1] (Rate 0.0630 kg/ha). In addition, the “Preemergence herbicidal rating ORYSAT” value is recorded as 0.0 in the experiment with ORYSAT (Rice, Tebonnet) (rate 0.0313 kg/ha); 1.0 in the experiment on ORYSAT (Rice, Tebonnet) (rate 0.0625 kg/ha); 5.0 in the experiment with ORYSAT (Rice, Tebonnet) (rate 0.1250 kg/ha); 7.0 with ORYSAT (Rice, Tebonnet) (rate 0.2500 kg/ha). In addition, the “Herbicidal rating MOOVA” value in the experiment with MOOVA (Monochoria) (setting [8]) is on record as 2.0; in the experiment with MOOVA (Monochoria) (setting [9]) it was 2.0; with MOOVA (Monochoria) (setting [10]) it was 9.0; in the experiment with MOOVA (Monochoria) (setting [11]), 9.0. Also, the “Postemergence herbicidal rating TRZAWR” value was determined as 2.5 in experiment [2] (Rate 0.0158 kg/ha), 3.0 in experiment [2] (Rate 0.0315 kg/ha) and 4.0 in experiment [2] (Rate 0.0630 kg/ha). The “Preemergence herbicidal rating CHEAL” value in experiment [3] (rate 0.0313 kg/ha), in experiment [3] (rate 0.0625 kg/ha), in experiment [3] (rate 0.1250 kg/ha) and in experiment [3] (rate 0.2500 kg/ha) was 9.0 each time. In addition, the “Postemergence herbicidal rating CASOB” value amounted to 4.0 in the experiment with CASOB (Sicklepod) (Rate 0.0158 kg/ha), 7.0 in the experiment on CASOB (Sicklepod) (Rate 0.0315 kg/ha) and 9.0 with CASOB (Sicklepod) (Rate 0.0630 kg/ha).
